What was measured:
AGE-BSA = biological target: T1, AGE-BSA (Bos taurus, UniProt P02769); experiment: In-vitro screening for AGE-breaking activity (ELISA on 16 weeks AGE-BSA); format: biochemical, bovine; conditions: Concentration 5 mM; 10µg/ml 16 weeks AGE-BSA, 37°C, 24 hours
T1 construct: Bovine serum albumin (fraction V) (BSA); from tissue; host or cells: bovine serum (fraction V albumin)
Description: • Materials: • Bovine serum albumin (fraction V) (BSA) • Glucose, analytical grade • Phosphate buffered saline (PBS) • Equipment: • Microplate ELISA Reader - Spectramax Plus (Molecular Devices, USA) • Microplate washer, (Bio -Tec Instruments, USA) • pH meter Methods of experiment: Elisa (Enzyme Linked Immunosorbent Assay) 160 mg/ml of protein, bovine serum albumin, BSA and 1.6M glucose sugar were dissolved in phosphate buffered saline, PBS. Sodium azide was added at 0.02% concentration as a preservative. The solution was filtered asceptically through a 0.22 µM filter and kept for aging at 37°C for 16 weeks. After 16 weeks the solution was dialyzed against PBS, aliquoted and stored at - 20°C.
To determine the AGE breaking activity, 10µg/ml of the 16 weeks AGE-BSA was incubated with different concentrations of the test compounds at 37°C for 24 hours and AGE breaking activity of the test compounds by ELISA was determined. […] Different concentrations of 16 weeks AGE-BSA were coated on a microtitre plate as standard. Each concentration is coated in triplicates. • 2. The test samples were coated on microtitre plate at a concentration of 5 ng. to 20 ng per well in triplicates. • 3. The plate was incubated at 37°C for one hour. • 4. After incubation the plate was washed with PBST (PBS with 0.05% Tween 20). • 5. Blocking with 5% skimmed milk in PBS at 37°C for one hour was done. • 6. The plate was washed with PBST. • 7. Primary antibody against AGE-BSA was added and the plate is incubated at 37°C for one hour. • 8. The plate was washed with PBST • 9. Secondary antibody anti rabbit HRPO (Horse-Radish Per Oxidase) conjugate was added and the plate is incubated at 37°C for one hour. • 10. The plate was washed with PBST. • 11. Colour development with OPD (orthophenylenediamine dihydrochloride) and hydrogen peroxide was done. • 12. OD (optical density) at (450nm reading - 620nm reading) was measured after incubation at 37°C for 15 minutes with Microplate ELISA Reader.
The breaker activity of the compounds were determined by the following formula: % Breaker activity =(OD450-620 Control - OD450-620 Test)/(OD450-620 Control)x 100 [formula]

rat model of diabetes [1] = experiment: In-vivo screening: creatinine clearance in STZ-induced diabetic rats; conditions: b.i.d., 8 weeks, after 12 weeks of STZ diabetes, versus untreated diabetic group
Description: (§1) The test compounds were studied for their beneficial effects on diabetic neuropathy and nephropathy in a rat model of diabetes. The rats were divided into three groups. The first group consisted of age matched untreated non-diabetic animals. The second group consisted of diabetic controls and the third group was the diabetic group treated with the test compound. Each treatment group had its own corresponding control and diabetic groups. The second and third groups were treated with Streptozotocin (STZ) at 60mg/kg for the induction of diabetes. After completion of 12 weeks of diabetes the rats were treated with the test compound daily (doses shown in table) for a period of 8 weeks. At the end of the treatment the creatinine clearances and nerve conduction velocities (NCV) of the animals were estimated. Creatinine clearances of the rats were estimated as follows Creatinine clearance =(Concentration of creatinine in the urine)/(Concentration of creatinine in the blood.)x ml urine passed/minute [formula]
The creatinine clearance in untreated diabetic group was compared with the treated group and the percentage improvements are shown in the Table 3.

rat model of diabetes [2] = experiment: In-vivo screening: nerve conduction velocity in STZ-induced diabetic rats; conditions: b.i.d., 8 weeks, after 12 weeks of STZ diabetes
Description: as §1, with “Creatinine clearances of the rats were estimated as follows Creatinine clearance =(Concentration of creatinine in the urine)/(Concentration of creatinine in the blood.)x ml urine passed/minute [formula]” left out
The nerve conduction velocity was measured using a modified method of Biro et al 1998. […] Electromyograms (EMG's) recorded from the plantar muscles consisted of two components: (l) the short latency direct motor response (M) and the monosynaptically elicited long-latency sensory response (H, Hoffmann reflex). Latency and the duration of the M responses were measured and the motor nerve conduction velocity (MNCV) was calculated as follows : MNCV =(Distance between the sciatic and tibial stimulation points.)/(Differences of the latency for Msciatic and Mtibial) [formula] […]

T1 sequence (P02769 25-607): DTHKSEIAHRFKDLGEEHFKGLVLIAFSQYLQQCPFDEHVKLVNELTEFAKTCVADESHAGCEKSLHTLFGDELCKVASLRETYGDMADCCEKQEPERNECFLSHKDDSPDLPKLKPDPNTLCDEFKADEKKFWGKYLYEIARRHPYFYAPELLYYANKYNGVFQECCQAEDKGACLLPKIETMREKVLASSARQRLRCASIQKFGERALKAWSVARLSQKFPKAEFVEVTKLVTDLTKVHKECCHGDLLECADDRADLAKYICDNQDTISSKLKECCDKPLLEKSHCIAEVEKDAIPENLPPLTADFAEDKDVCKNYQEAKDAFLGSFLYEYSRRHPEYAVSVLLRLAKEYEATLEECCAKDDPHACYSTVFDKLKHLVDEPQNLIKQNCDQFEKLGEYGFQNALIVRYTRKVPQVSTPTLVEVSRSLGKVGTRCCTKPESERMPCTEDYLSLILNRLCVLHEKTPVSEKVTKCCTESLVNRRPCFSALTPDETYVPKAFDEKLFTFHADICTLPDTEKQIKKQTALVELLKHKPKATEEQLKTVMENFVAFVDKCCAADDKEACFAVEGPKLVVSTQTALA

Structure (SMILES)	% breakage of AGE-BSA crosslinks at 5000 µM (AGE-BSA)	% Increase in creatinine clearance (rat model of diabetes [1]; 7.5 mg/kg)	% Increase in the NCV (rat model of diabetes [2]; 7.5 mg/kg)	% Increase in creatinine clearance (rat model of diabetes [1]; 6.0 mg/kg)	% Increase in the NCV (rat model of diabetes [2]; 6.0 mg/kg)
O=C(NNC(=O)c1ccc[n+](CC(=O)c2cccs2)c1)c1ccc[n+](CC(=O)c2cccs2)c1 [Compound 15, N,N'-bis [3-carbonyl-1-(2-thien-2'-yl-2-oxoethyl)pyridinium] hydrazine dichloride]	20%	103.0%	60.0%		
O=C(C[n+]1cccc(C(=O)NNC(=O)c2ccc[n+](CC(=O)NC3CC3)c2)c1)NC1CC1 [Compound 21, N,N'-bis-[3-carbonyl-1-(2-cyclopropylamino-2-oxoethyl)pyridinium] hydrazine dichloride]	22.8%			5.0%	58.4%
